Key:
col5a1 = assay: RT-PCR of col5a1 mRNA isoforms after Vivo-Morpholino injection; assay type: in vivo, zebrafish; details: serial intra-abdominal injection, 80 ng/mg vMO
Experimental: Zebrafish qRT-PCR. RNA extraction, PCR and quantitative RT-PCR (qRT-PCR) was performed as previously described using total RNA from dissected whole VAT tissue of 10 mm zebrafish. (Rawls J F, et al. (2007), PNAS 104(18):7622-7627.) VAT and SAT were dissected from adult Ekkwill strain wild-type zebrafish and used to assess plxnd1 mRNA levels (FIG. 18(B)). Samples contained 5-8 siblings or mutants per group, and qRT-PCR was ran with three biological replicate groups, and reactions ran in triplicate.
Zebrafish were raised under normal conditions until 30-50 days post fertilisation. Fish were anesthetised in 0.67 g/L MS222 and SL measured using an eyepiece reticle. Intra-abdominal injections were then performed on a Nanoject II injector (Drummond) as previously described. (McMenamin S K, et al (2013), Endocrinology 154(4):1476-1487.) At each injection, dosage was adjusted according to body weight (mg) using the following equation: mg=−48.10+7.36*SL+0.68*(SL-8.94)^2. (McMenamin S K, et al (2013), Endocrinology 154(4):1476-1487.) Concentration of individual compounds at injection were (relative to volume/mass of fish): 80 ng/mg col5a1-ile2 vMO (5′-[…]-3′; SEQ ID NO.: 55) or col5a1-e3i3 vMO (5′-[…]-3′; SEQ ID NO.: 56) (Gene-Tools, LLC), 100 μM EDHB (Sigma) and 80 ng/mg EdU. Control animals were injected with either a standard control vMO (5′-[…]-3′; SEQ ID NO.: 57) (Gene-Tools) or 0.1% DMSO.

Type V collagen (Col5) = assay: Col5 immunofluorescence in VAT after vMO injection; assay type: in vivo, zebrafish; details: endothelial cell and peri-adipocyte locations
Experimental: Immunohistochemistry was performed as previously described (Kanther M, et al. (2011), Gastroenterology 141(1):197-207.) Immunohistochemistry was conducted with antibodies to Type V collagen (Col5) (Rockland, #600-401-107S), Laminin (Sigma, #L-9393), WCL15 (Romano N, et al. (1998), Anatomy and embryology 198(1):31-41; van der Sar A M, et al. (2004), Trends in microbiology 12(10):451-457), and Alexa 568 (Invitrogen, #A-1 1011). Transmission electron microscopy was carried out as described previously. (Flynn E J, et al. (2009), Journal of lipid research 50(8):1641-1652.) Whole 10-12 mm SL fish were processed for paraffin sectioning and Masson's trichrome, combined Masson's and Elastin, periodic acid Schiff (PAS) and Alcian Blue stains. (Sabaliauskas N A, et al. (2006), Methods 39(3):246-254.)
Zebrafish were raised under normal conditions until 30-50 days post fertilisation. Fish were anesthetised in 0.67 g/L MS222 and SL measured using an eyepiece reticle. Intra-abdominal injections were then performed on a Nanoject II injector (Drummond) as previously described. (McMenamin S K, et al (2013), Endocrinology 154(4):1476-1487.) At each injection, dosage was adjusted according to body weight (mg) using the following equation: mg=−48.10+7.36*SL+0.68*(SL-8.94)^2. […]

[1] = Turbidity assay of ECM extracted from VAT (in vitro fibrillogenesis); design: species or system zebrafish; details: ECM of sibling VAT, vMO injected before extraction
Text: To assess fibrillogenesis in plxnd1 mutant VAT, ECM is extracted from zebrafish VAT, and fibril polymerization and gel formation is induced in vitro (FIG. 13). Turbidity assays are used to determine the rate and ultimate extent of fibrillogenesis. ECM was purified from dissected zebrafish VAT (˜100 VATS per tube, triplicate tubes per condition) as previously described. (Uriel S, et al. (2009), Tissue engineering. Part C, Methods 15(3):309-321.) Urea extraction was allowed to proceed for 14-21 days at 4° C. Protein concentration (˜7 mg/ml) was assessed by the Bradford assay (Thermo Scientific). […] To induce fibril polymerization and gel formation, acetic acid was added to a pH of 7. Turbidity assays were conducted as previously described using a Spectronic 20D+ spectrometer (Thermo Scientific). (Wood G C & Keech M K (1960), The Biochemical journal 75:588-598.)

Substance	splicing of col5a1 (RT-PCR, mRNA isoform) (col5a1)	Col5 protein levels (Col5 reactivity) (Type V collagen (Col5))	in vitro fibrillogenesis [1]
col5a1-e3i3 vMO: Vivo-Morpholino 5′-GAGTTCCTACTTACCTCAAACACCT-3′ (SEQ ID NO.: 56) targeting zebrafish col5a1 exon 3-intron 3 boundary (all phosphorodiamidate morpholino (PMO); Vivo-Morpholino, delivery moiety not given here, further chemistry not fully specified)	skipping of exon 3	–	–
col5a1-ile2 vMO: Vivo-Morpholino 5′-GAAACATGGATGCTACAGAGAGAGA-3′ (SEQ ID NO.: 55) targeting zebrafish col5a1 intron 1-exon 2 boundary (all phosphorodiamidate morpholino (PMO); Vivo-Morpholino, delivery moiety not given here, further chemistry not fully specified)	inclusion of part of intron 1	significantly reduced	did not affect
